Literature values, collected in patent US8067367B2, “Methods of increasing platelet and hematopoietic stem cell production” (Janssen Pharmaceutica, N.V., priority 2002, dated 2011).

Tests used:
[1] = test system: CD34+ cells; conditions: normal volunteers
[2] = test system: HSCs in adult bone marrow; conditions: exogenously added TPO; after bone marrow transplantation
[3] = test system: circulating CD34+ cells
[4] = test system: CD34+ stem cells; conditions: rhTPO with G-CSF; pilot study
[5] = single dose of TPO, cancer patients

In the case of Thrombopoietin [TPO], the “CD34+ cells in the peripheral blood” value [1] is given as 16×10^3 cells/ml, the “HSC expansion defect in tpo−/− mice” value [2] is given as “rescued this defect” and the “increase in circulating CD34+ cells” value ([3]; 3-7 days after a single dose of TPO, cancer patients with otherwise normal hematopoiesis) is given as 6 fold. For the same substance, the “increase of committed megakaryocytic subfraction (CD34+CD41+CD14−)” value [3, 5] was about 15 fold, the “increase of stem cell enriched subfraction (CD34+ Thy+Lin−)” value [3, 5] was about 9 fold and the “mobilization and apheresis yields of CD34+ stem cells in response to G-CSF” value [4] was “able to enhance the mobilization and apheresis yields of CD34+ stem cells”.
